Results reported in patent US12162858B2, “Quinoline derivatives as inhibitors of AXL/MER RTK and CSF1R” (QURIENT CO., LTD., priority 2018, dated 2024).

Assays:
[1] = molecular target: T1, Axl (Homo sapiens, UniProt P30530); test: LanthaScreen Eu kinase binding assay for Axl; settings: read-out: Axl kinase binding activity (Kd)
T1 sequence (P30530 26-894): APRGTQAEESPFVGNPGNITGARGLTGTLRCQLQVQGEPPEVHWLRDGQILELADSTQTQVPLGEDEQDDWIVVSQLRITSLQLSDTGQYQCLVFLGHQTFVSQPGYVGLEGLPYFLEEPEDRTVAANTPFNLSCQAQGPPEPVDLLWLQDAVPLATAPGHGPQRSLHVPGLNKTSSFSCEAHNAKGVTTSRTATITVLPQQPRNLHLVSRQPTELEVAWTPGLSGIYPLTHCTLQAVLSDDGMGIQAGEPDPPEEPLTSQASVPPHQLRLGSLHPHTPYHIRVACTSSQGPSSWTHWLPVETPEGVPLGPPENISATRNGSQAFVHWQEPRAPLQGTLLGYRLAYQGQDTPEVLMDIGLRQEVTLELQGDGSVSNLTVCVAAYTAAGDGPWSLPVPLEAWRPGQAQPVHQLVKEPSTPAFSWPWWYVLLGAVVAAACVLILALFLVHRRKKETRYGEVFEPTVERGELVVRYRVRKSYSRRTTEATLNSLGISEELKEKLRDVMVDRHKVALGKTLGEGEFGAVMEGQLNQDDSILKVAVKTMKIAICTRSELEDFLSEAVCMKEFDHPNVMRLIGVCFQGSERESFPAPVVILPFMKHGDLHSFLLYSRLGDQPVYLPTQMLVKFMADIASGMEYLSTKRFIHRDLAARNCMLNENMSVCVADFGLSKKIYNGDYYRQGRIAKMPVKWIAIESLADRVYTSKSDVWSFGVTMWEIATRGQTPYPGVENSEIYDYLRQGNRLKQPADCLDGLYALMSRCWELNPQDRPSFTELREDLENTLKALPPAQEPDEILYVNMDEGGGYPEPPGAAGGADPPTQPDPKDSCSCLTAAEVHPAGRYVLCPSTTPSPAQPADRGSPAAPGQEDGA
Outline: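 Kd values come from control-normalized FRET loss, referenced to DMSO vehicle wells, after 1 h at room temperature. Each compound was serially diluted over eight steps in DMSO and competed against Tracer 236 (Alexa Fluor 647) for the kinase, which was tagged by a Eu anti-GST antibody.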

[2] = molecular target: T1, Axl; test: Cellular Axl inhibition ELISA (p-Axl, Gas6-induced) using H1299 cells; format: cell-based; set-up: especially H1299 cell endogenously expresses Axl; endogenous in cells; host or cells: H1299; settings: read-out: Cellular Axl activity by H1299 Elisa (IC50)
Outline: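 H1299 cells, seeded overnight, exposed 24 h at 37 °C to 10-point 3-fold compound dilutions, then stimulated with 200 ng/ml human Gas6 (final) for 1 h. Lysates assayed for p-Axl by sandwich ELISA with HRP/TMB, absorbance 450 nm; IC50 by sigmoidal dose-response fit.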

Row | Structure (SMILES) | Kd [1] [nM] | IC50 [2] [nM]
1 | CCn1nc(C(=O)Nc2ccc(Oc3ccnc4cc(OC)c(OC)cc34)cn2)c(OCC(F)(F)F)c1C [Compound 1] | < 100 | < 500
2 | COc1cc2nccc(Oc3ccc(NC(=O)c4nn(C(C)C)c(C)c4OCC(F)(F)F)nc3)c2cc1OC [Compound 2] | < 100 | < 500
3 | COc1cc2nccc(Oc3ccc(NC(=O)c4nn(C5CC5)c(C(C)=O)c4OCC(F)(F)F)nc3)c2cc1OC [Compound 3] | < 100 | < 500
4 | COc1cc2nccc(Oc3ccc(NC(=O)c4nn(C5CCOC5)cc4OCC(F)(F)F)nc3)c2cc1OC (centres unmarked) [Compound 13] | < 100 | < 500
5 | CCCn1cc(OCCF)c(C(=O)Nc2ccc(Oc3ccnc4cc(OC)c(OC)cc34)cn2)n1 [Compound 14] | < 100 | < 500
6 | CCCn1cc(OCCC(O)CO)c(C(=O)Nc2ccc(Oc3ccnc4cc(OC)c(OC)cc34)cn2)n1 (centres unmarked) [Compound 15] | < 100 | ≥ 1000
7 | COc1cc2nccc(Oc3ccc(NC(=O)c4nn(CC(C)O)cc4OCC(F)(F)F)nc3)c2cc1OC (centres unmarked) [Compound 17] | < 100 | < 500
8 | COc1cc2nccc(Oc3ccc(NC(=O)c4nn(CCCO)cc4OCC(F)(F)F)nc3)c2cc1OC [Compound 18] | < 100 | < 500
9 | COc1cc2nccc(Oc3ccc(NC(=O)c4nn(CC(C)=O)cc4OCC(F)(F)F)nc3)c2cc1OC [Compound 19] | < 100 | < 500
10 | CCC(=O)n1cc(OCC(F)(F)F)c(C(=O)Nc2ccc(Oc3ccnc4cc(OC)c(OC)cc34)cn2)n1 [Compound 20] | < 100 | < 500
11 | COc1cc2nccc(Oc3ccc(NC(=O)c4nn(CC(C)C)cc4OCC(F)(F)F)nc3)c2cc1OC [Compound 21] | < 100 | < 500
12 | COc1cc2nccc(Oc3ccc(NC(=O)c4nn(C(C)(C)C)cc4OCC(F)(F)F)nc3)c2cc1OC [Compound 22] | < 100 | < 500
13 | CCCn1cc(NCC(F)(F)F)c(C(=O)Nc2ccc(Oc3ccnc4cc(OC)c(OC)cc34)cn2)n1 [Compound 23] | < 100 | < 500
14 | COc1cc2nccc(Oc3ccc(NC(=O)c4nn(C5CCC5)cc4OCC(F)(F)F)nc3)c2cc1OC [Compound 24] | < 100 | < 500
15 | CCCn1cc(OCC(F)(F)F)c(C(=O)Nc2ccc(Oc3ccnc4cc(OC)c(OC)cc34)c(F)c2)n1 [Compound 25] | < 100 | < 500
16 | CCCn1cc(OCC(F)(F)F)c(C(=O)Nc2ccc(Oc3ccnc4cc(OC)c(OC)cc34)c(C)c2)n1 [Compound 26] | < 100 | < 500
17 | CCCn1cc(OCC(F)(F)F)c(C(=O)Nc2ccc(Oc3ccnc4cc(OC)c(OC)cc34)cc2C)n1 [Compound 27] | < 100 | < 500
18 | CCCn1cc(OCC(F)(F)F)c(C(=O)Nc2ccc(Oc3ccnc4cc(OC)c(OC)cc34)cc2F)n1 [Compound 28] | < 100 | < 500
19 | COc1cc2nccc(Oc3ccc(NC(=O)c4nn(C[C@@H](C)O)cc4OCC(F)(F)F)nc3)c2cc1OC [Compound 29] | < 100 | < 500
20 | COc1cc2nccc(Oc3ccc(NC(=O)c4nn(C[C@H](C)O)cc4OCC(F)(F)F)nc3)c2cc1OC [Compound 30] | < 100 | < 500
21 | CCCn1cc(OCCC(F)(F)F)c(C(=O)Nc2ccc(Oc3ccnc4cc(OC)c(OC)cc34)cn2)n1 [Compound 31] | < 100 | < 500
22 | CCCn1cc(OCC(F)(F)F)c(C(=O)Nc2ccc(Oc3ccnc4cc(OC)c(OC)cc34)nn2)n1 [Compound 32] | < 100 | < 500

Row | Structure (SMILES) | Kd [1] [nM] | IC50 [2] [nM]
23 | COc1cc2nccc(Oc3ccc(NC(=O)c4nn(C)cc4OCC(F)(F)F)nc3)c2cc1OC [Compound 33] | < 100 | < 500
24 | CCCn1cc(N(C)CC2CCOCC2)c(C(=O)Nc2ccc(Oc3ccnc4cc(OC)c(OC)cc34)cn2)n1 [Compound 34] | ≥ 500 | ≥ 1000
25 | CCCn1cc(OC(C)C)c(C(=O)Nc2ccc(Oc3ccnc4cc(OC)c(OC(F)(F)F)cc34)c(F)c2)n1 [Compound 35] | ≥ 500 | ≥ 1000
26 | CCCCn1cc(OCC(F)(F)F)c(C(=O)Nc2ccc(Oc3ccnc4cc(OC)c(OC)cc34)cn2)n1 [Compound 36] | < 100 | < 500
27 | COc1cc2nccc(Oc3ccc(NC(=O)c4nn(C)cc4OCC(F)(F)F)cc3C)c2cc1OC [Compound 37] | 100 to 500 | ≥ 1000
28 | CCCn1cc(OCC(F)(F)F)c(C(=O)Nc2ccc(Oc3ccnc4cc(OC)c(OC)cc34)cc2)n1 [Compound 38] | < 100 | < 500
29 | COc1cc2nccc(Oc3ccc(NC(=O)c4nn(CCC#N)cc4OCC(F)(F)F)nc3)c2cc1OC [Compound 39] | < 100 | < 500
30 | COc1cc2nccc(Oc3ccc(NC(=O)c4nn(C5CCCC5)cc4OCC(F)(F)F)nc3)c2cc1OC [Compound 40] | < 100 | < 500
31 | COc1cc2nccc(Oc3ccc(NC(=O)c4nn(CC5CC5)cc4OCC(F)(F)F)nc3)c2cc1OC [Compound 41] | < 100 | < 500
32 | COc1cc2nccc(Oc3ccc(NC(=O)c4nn(CC5CCC5)cc4OCC(F)(F)F)nc3)c2cc1OC [Compound 42] | < 100 | < 500
33 | COc1cc2nccc(Oc3ccc(NC(=O)c4nn(CC5CCCCC5)cc4OCC(F)(F)F)nc3)c2cc1OC [Compound 43] | < 100 | < 500
34 | COc1cc2nccc(Oc3ccc(NC(=O)c4nn(CC5CCOC5)cc4OCC(F)(F)F)nc3)c2cc1OC (centres unmarked) [Compound 44] | < 100 | < 500
35 | COc1cc2nccc(Oc3ccc(NC(=O)c4nn(C)cc4OCC(F)(F)F)c(F)c3)c2cc1OC [Compound 45] | < 100 | 500 to 1000
36 | COc1cc2nccc(Oc3ccc(NC(=O)c4nn(CCO)cc4OCC(F)(F)F)c(F)c3)c2cc1OC [Compound 46] | < 100 | < 500
37 | COc1cc2nccc(Oc3ccc(NC(=O)c4nn(C5CCCC5)cc4OCC(F)(F)F)c(F)c3)c2cc1OC [Compound 47] | < 100 | < 500
38 | COc1cc2nccc(Oc3ccc(NC(=O)c4nn(CC(C)C)cc4OCC(F)(F)F)c(F)c3)c2cc1OC [Compound 48] | < 100 | < 500
39 | COCCn1cc(OCC(F)(F)F)c(C(=O)Nc2ccc(Oc3ccnc4cc(OC)c(OC)cc34)cc2F)n1 [Compound 49] | < 100 | < 500
40 | COc1cc2nccc(Oc3ccc(NC(=O)c4nn(C)cc4OCC(F)(F)F)cc3F)c2cc1OC [Compound 50] | < 100 | < 500
41 | COc1cc2nccc(Oc3ccc(NC(=O)c4nn(CCO)cc4OCC(F)(F)F)cc3F)c2cc1OC [Compound 51] | < 100 | < 500
42 | COc1cc2nccc(Oc3ccc(NC(=O)c4nn(C5CCCC5)cc4OCC(F)(F)F)cc3F)c2cc1OC [Compound 52] | < 100 | < 500
43 | COc1cc2nccc(Oc3ccc(NC(=O)c4nn(CC(C)C)cc4OCC(F)(F)F)cc3F)c2cc1OC [Compound 53] | < 100 | < 500
